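How tested: cells in 96-well plates exposed to compound for 48 hours at five concentrations. Here, GI50 denotes the concentration required for 50% inhibition of growth.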 Activity calls are given as the source filed them. No stated cut-off is given here; in the data, active = GI50 up to about 1.1 µM and inactive = higher.
Tests used:
Experiment in all cases: NCI tumour cell line growth inhibition, 48 h
T47D = system: T47D
MOLT-4 = system: MOLT-4
CAKI-1 = system: CAKI-1
OVCAR-4 = system: OVCAR-4
HCT-116 = system: HCT-116
OVCAR-3 = system: OVCAR-3
UO-31 = system: UO-31
MDA-MB-435 = system: MDA-MB-435
Malme-3M = system: Malme-3M
BT-549 = system: BT-549
ACHN = system: ACHN
K562 = system: K562
KM12 = system: KM12
TK-10 = system: TK-10
SW-620 = system: SW-620
RXF 393 = system: RXF 393
IGROV-1 = system: IGROV-1
Hs-578T = system: Hs-578T
SF-539 = system: SF-539

Compound | GI50 (T47D) | GI50 (MOLT-4) | GI50 (CAKI-1) | GI50 (OVCAR-4) | GI50 (HCT-116) | GI50 (OVCAR-3) | GI50 (UO-31) | GI50 (MDA-MB-435) | GI50 (Malme-3M) | GI50 (BT-549) | GI50 (ACHN) | GI50 (K562) | GI50 (KM12) | GI50 (TK-10) | GI50 (SW-620) | GI50 (RXF 393) | GI50 (IGROV-1) | GI50 (Hs-578T) | GI50 (SF-539)
C#C[C@]1(O)CC[C@H]2[C@@H]3CCC4=C/C(=N/CCOC(=O)c5cccc6cc7ccccc7nc56)CC[C@@H]4[C@H]3CC[C@@]21C | 16.8 µM (inactive) | > 100 µM (inactive) | 42.4 µM (inactive) | 26 µM (inactive) | 27.1 µM (inactive) | 35.5 µM (inactive) | 30.5 µM (inactive) | 27.3 µM (inactive) | 27.7 µM (inactive) | 24.2 µM (inactive) | 29.2 µM (inactive) | > 100 µM (inactive) | 20.6 µM (inactive) | 31.5 µM (inactive) | 57.3 µM (inactive) | 4.06 µM (inactive) | 13.8 µM (inactive) | 14.3 µM (inactive) | 
NC1=CN(Cc2ccccc2)C2=N/C(=C\c3ccco3)C(=O)N12 | > 100 µM (inactive) | > 100 µM (inactive) | > 100 µM (inactive) | > 100 µM (inactive) | > 100 µM (inactive) | > 100 µM (inactive) | > 100 µM (inactive) | > 100 µM (inactive) | > 100 µM (inactive) | > 100 µM (inactive) | > 100 µM (inactive) | > 100 µM (inactive) | > 100 µM (inactive) | > 100 µM (inactive) | > 100 µM (inactive) | > 100 µM (inactive) | > 100 µM (inactive) | > 100 µM (inactive) | > 100 µM (inactive)
Cc1c2ncccc2c(C)c2c1[nH]c1ccc(O)cc12 | 8.59 µM (inactive) | 0.478 µM (active) | 3.32 µM (inactive) | 4.15 µM (inactive) | 4.59 µM (inactive) | 6.28 µM (inactive) | 3.35 µM (inactive) | 7.64 µM (inactive) | 8.87 µM (inactive) | 13.7 µM (inactive) | 2.02 µM (inactive) | 3.44 µM (inactive) | 3.6 µM (inactive) | 12.8 µM (inactive) | 2.8 µM (inactive) | 2.9 µM (inactive) | 3.89 µM (inactive) | 1.08 µM (active) | 6.55 µM (inactive)
C=CCc1cccc2cc(C(=O)Nc3ccccc3)c(=N)oc12 | 11.9 µM (inactive) | > 100 µM (inactive) | 63.2 µM (inactive) | 15.6 µM (inactive) | 18.1 µM (inactive) | > 100 µM (inactive) |  | 27.9 µM (inactive) | 7.14 µM (inactive) | > 100 µM (inactive) | 10.1 µM (inactive) | 64 µM (inactive) | 38.9 µM (inactive) |  | > 100 µM (inactive) | > 100 µM (inactive) | 33.2 µM (inactive) | 37.6 µM (inactive) | 28.2 µM (inactive)
O=C(N/N=C(COc1ccccc1)\N=C\c1cccnc1)c1ccncc1 | > 100 µM (inactive) | > 100 µM (inactive) | > 100 µM (inactive) | > 100 µM (inactive) | > 100 µM (inactive) | > 100 µM (inactive) |  | > 100 µM (inactive) | > 100 µM (inactive) | > 100 µM (inactive) | > 100 µM (inactive) | > 100 µM (inactive) | > 100 µM (inactive) | > 100 µM (inactive) | > 100 µM (inactive) | > 100 µM (inactive) | > 100 µM (inactive) | > 100 µM (inactive) | > 100 µM (inactive)
C[N+]1(C)CC[N+](C)(C)[BH-]1C(O)O | > 100 µM (inactive) | > 100 µM (inactive) | > 100 µM (inactive) | > 100 µM (inactive) | > 100 µM (inactive) | > 100 µM (inactive) | > 100 µM (inactive) | > 100 µM (inactive) |  | > 100 µM (inactive) | > 100 µM (inactive) | > 100 µM (inactive) | > 100 µM (inactive) | > 100 µM (inactive) | > 100 µM (inactive) | > 100 µM (inactive) | > 100 µM (inactive) | > 100 µM (inactive) | > 100 µM (inactive)
CC1(C)CC(=O)c2c(nc3c4c([nH]c(-c5ccc(Br)cc5)c24)CC(C)(C)C3)C1 | 23.2 µM (inactive) | 13.8 µM (inactive) | 50.4 µM (inactive) | 30.7 µM (inactive) | 36.3 µM (inactive) | 27.1 µM (inactive) | 45.1 µM (inactive) | 29.7 µM (inactive) | 49.1 µM (inactive) | 35.8 µM (inactive) | 42.7 µM (inactive) | 18.2 µM (inactive) | 33.4 µM (inactive) | 61.1 µM (inactive) | 49.3 µM (inactive) | 22.8 µM (inactive) |  | 33 µM (inactive) | 76.6 µM (inactive)
C[N+]1(c2ccccc2)C=C(c2ccccc2)SC1=S (stereo not drawn) | 1.67 µM (inactive) |  | > 100 µM (inactive) |  | > 100 µM (inactive) | 8.22 µM (inactive) | > 100 µM (inactive) | > 100 µM (inactive) | 73.1 µM (inactive) | > 100 µM (inactive) | > 100 µM (inactive) | 42.7 µM (inactive) | > 100 µM (inactive) | > 100 µM (inactive) | > 100 µM (inactive) | 1.87 µM (inactive) | > 100 µM (inactive) | 66.1 µM (inactive) | > 100 µM (inactive)
CC(C)C12CCC3(CCC4C(C)(C(=O)O)CCCC4(C)C3C1)C(CN)C2 (stereo not drawn) | 55.2 µM (inactive) |  | 35.4 µM (inactive) | 67.9 µM (inactive) | 17.3 µM (inactive) | 40.1 µM (inactive) | 40.4 µM (inactive) | 37.7 µM (inactive) | 45 µM (inactive) | 38.5 µM (inactive) | 33.4 µM (inactive) |  | 35.8 µM (inactive) | 37.7 µM (inactive) | 35.4 µM (inactive) | 35.2 µM (inactive) | 53.2 µM (inactive) | 62.8 µM (inactive) | 28.2 µM (inactive)
C[C@@H]1C[C@H]2[C@@H]3CCC4=CC(=O)C=C[C@]4(C)[C@@]3(Cl)[C@@H](Cl)C[C@]2(C)[C@@]1(O)C(=O)COP(=O)(O)O | > 100 µM (inactive) | 22 µM (inactive) | > 100 µM (inactive) | > 100 µM (inactive) | 89.3 µM (inactive) | > 100 µM (inactive) | > 100 µM (inactive) | > 100 µM (inactive) | > 100 µM (inactive) | 52.1 µM (inactive) | > 100 µM (inactive) | 7.41 µM (inactive) | > 100 µM (inactive) | > 100 µM (inactive) | > 100 µM (inactive) | > 100 µM (inactive) | > 100 µM (inactive) | > 100 µM (inactive) | 
O=C(NC12CC3CC(CC(C3)C1)C2)n1cnc2c(Cl)ncnc21 | > 100 µM (inactive) | 15 µM (inactive) | > 100 µM (inactive) |  | 37.8 µM (inactive) | 22.7 µM (inactive) | > 100 µM (inactive) | 19.1 µM (inactive) | > 100 µM (inactive) | 31.3 µM (inactive) | 21.2 µM (inactive) | 25.8 µM (inactive) | > 100 µM (inactive) | > 100 µM (inactive) | 37 µM (inactive) | 35.2 µM (inactive) | 18.5 µM (inactive) | 32.3 µM (inactive) | 42.6 µM (inactive)
CSc1c(C#N)c(O)n(-c2ccc(Cl)cc2)c(=O)c1C#N | 64.9 µM (inactive) | 76.4 µM (inactive) | 49.4 µM (inactive) | > 100 µM (inactive) | 63.5 µM (inactive) | > 100 µM (inactive) | 72.9 µM (inactive) | > 100 µM (inactive) | > 100 µM (inactive) | > 100 µM (inactive) |  | 35.6 µM (inactive) | 36 µM (inactive) | > 100 µM (inactive) | 61 µM (inactive) | > 100 µM (inactive) | > 100 µM (inactive) | > 100 µM (inactive) | > 100 µM (inactive)
C[C@]12CCC(=O)[C@@H](CCC3=CC(=O)C=CC3=O)[C@@H]1CCC2=O | 9.23 µM (inactive) | 5.21 µM (inactive) | 12.7 µM (inactive) | 17.2 µM (inactive) | 15.5 µM (inactive) | 17.1 µM (inactive) | 14.3 µM (inactive) | 22 µM (inactive) | 16.1 µM (inactive) | 11 µM (inactive) | 16.6 µM (inactive) | 2.14 µM (inactive) | 14.3 µM (inactive) | 16 µM (inactive) | 18.2 µM (inactive) | 1.9 µM (inactive) |  | 3.97 µM (inactive) | 11.4 µM (inactive)
Cn1c2ccccc2c2c3c(c4c5ccccc5n(C)c4c21)C(=O)NC3=O | 46.1 µM (inactive) | > 100 µM (inactive) | 0.0256 µM (active) | 5.3 µM (inactive) | > 64.1 µM (inactive) |  | > 54.2 µM (inactive) | > 42.7 µM (inactive) | 20.5 µM (inactive) | > 42.4 µM (inactive) |  | > 54.6 µM (inactive) | 3.96 µM (inactive) | 18.2 µM (inactive) | > 74.6 µM (inactive) | 0.0589 µM (active) | 5.71 µM (inactive) | 24.8 µM (inactive) | 10.2 µM (inactive)
c1ccc(-c2cn3nc(N4CCOCC4)sc3n2)cc1 | 56.8 µM (inactive) | > 100 µM (inactive) | 16.6 µM (inactive) | 34 µM (inactive) | > 100 µM (inactive) | > 100 µM (inactive) | > 100 µM (inactive) | > 100 µM (inactive) | > 100 µM (inactive) | > 100 µM (inactive) | > 100 µM (inactive) | > 100 µM (inactive) | > 100 µM (inactive) | > 100 µM (inactive) | > 100 µM (inactive) | 83.6 µM (inactive) | 62.4 µM (inactive) | 60 µM (inactive) | 
